Literature values as cited in patent US20230338417A1, “Improved Pharmaceutical Preparation” (priority 2020, published 2023).

[O-][Cl+2]([O-])O [chloric acid]
Acid dissociation constant as pKa at 298K: 0

peroxochloric acid
Acid dissociation constant as pKa at 298K: approx. 6.2
